Laboratory results from publication PMC7859889 (ACS chemical biology, 2020).
Entries after “also recorded” stand apart in the source; their conditions may differ. Like-named read-outs stand apart in the source and are kept apart here.

Columns and labels:
[1] = test system: MX1; assay: Multi Gene RT-qPCR, MX1; type: cell-based, human; settings: compared to IFN-β treated cells; 4.0 ng/ml IFN-β plus 50 uM compound, 24 hrs
[2] = test system: HLA-ABC; assay: HLA-ABC immunofluorescence; type: cell-based, human; settings: for Emax / IC50: Homo sapiens; for Emax: read-out: Immunofluorescence Efficacy
[3] = test system: HLA-B HiBit cells; assay: CellTiter-Glo; settings: for CTG Efficacy: IFN-β = 0%, 92 uM Digitonin = −100% activity; for IC50: read-out: CTG IC50
[4] = test system: type I IFN – MHC class I pathway; assay: Average / all assays; type: cell-based, human; settings: for IC50: read-out: Average IC50; for hill slope: concentration-response curves
[5] = test system: HLA and ISG genes; assay: Multi Gene RT-qPCR, gene panel; type: cell-based, human; settings: 4.0 ng/ml IFN-β plus 50 uM compound, 24 hrs; for effect on HLA and ISG gene expression (in words): C25cl48 cells
[6] = test system: ISG15; assay: Multi Gene RT-qPCR, ISG15; type: cell-based, human; settings: compared to IFN-β treated cells; 4.0 ng/ml IFN-β plus 50 uM compound, 24 hrs
[7] = test system: C25cl48 cells; assay: IF cell count cytotoxicity; type: cell-based, human; settings: for Cell count Curve class: IF cell count cytotoxicity
[8] = test system: HLA-B mRNA; assay: HLA-B RT-qPCR tertiary assay; type: cell-based, human; settings: for Emax: read-out: RT-qPCR Efficacy; for IC50: read-out: RT-qPCR IC50
[9] = test system: STAT1; assay: Western blot, STAT1 phosphorylation; type: cell-based, human; settings: C25cl48 cells, 0.5 hrs, 4.0 ng/ml IFN-β plus IC95 concentration of compound
[10] = test system: HLA-B HiBit (MHC class I); assay: HLA-B HiBit luminescent reporter assay; settings: for HiBit Efficacy: 4.0 ng/ml IFN-β, IFN-β = 0%, DMSO alone = −100% activity; for Emax: read-out: HiBit Efficacy
[11] = test system: IL-6 stimulation of whole blood; settings: IL-6 stimulation of whole blood ref 20; cited from earlier work
[12] = test system: HLA-A; assay: Multi Gene RT-qPCR, HLA-A; type: cell-based, human; settings: 4.0 ng/ml IFN-β plus 50 uM compound, 24 hrs
[13] = test system: IFIT1; assay: Multi Gene RT-qPCR, IFIT1; type: cell-based, human; settings: compared to IFN-β treated cells; 4.0 ng/ml IFN-β plus 50 uM compound, 24 hrs
[14] = cited from earlier work
[15] = test system: HLA-C; assay: Multi Gene RT-qPCR, HLA-C; type: cell-based, human; settings: compared to IFN-β treated cells; 4.0 ng/ml IFN-β plus 50 uM compound, 24 hrs
[16] = cytotoxicity, 4.0 ng/ml IFN-β, 24 hours
[17] = HLA-B HiBit clone AB-7 cells, 24 hours
[18] = read-out: Immunofluorescence IC50
[19] = ( ) - efficacy at highest concentration
[20] = HLA-ABC+ C25cl48 cells, IFN-β-stimulated, prednisolone acetate used for IF
[21] = average of HiBit, Immunofluorescence, RT-qPCR
[22] = read-out: HiBit IC50, HLA-B HiBit clone AB-7 cells, 4.0 ng/ml IFN-β plus compound titration, 24 hours
[23] = HLA-B mRNA, C25cl48 cells, 4.0 ng/mL IFN-β

| Structure (SMILES) | Emax [2] [%] | CTG Curve class [3, 16] | IC50 ([4]; Homo sapiens) [nM] | effect on HLA and ISG gene expression (in words) [5] | Cell count Curve class ([7]; C25cl48 cells) | Emax ([8]; Homo sapiens) [%] | IC50 ([8]; Homo sapiens) [nM] | HiBit Efficacy [10, 17] [%] | IC50 [2, 18] [nM] | efficacy in reducing all HLA and ISG genes [5] | Emax ([10]; Homo sapiens, 24 h) [%] | further results |
| --- | --- | --- | --- | --- | --- | --- | --- | --- | --- | --- | --- | --- |
| C[C@]12C=CC(=O)C=C1CC[C@@H]1[C@@H]2[C@@H](O)C[C@@]2(C)[C@H]1CC[C@]2(O)C(=O)CO [Prednisolone] | 31 | 4 | 43 | increased ISG15 and MX1 | 4 | 14 | 30 |  |  |  |  | increase of MX1 mRNA [1]: ~ 3.4 fold; increase of ISG15 mRNA [6]: ~ 3.4 fold |
| C[C@@H]1CCN(C(=O)CC#N)C[C@@H]1N(C)c1ncnc2[nH]ccc12 [Tofacitinib, tofacitinib] | 100 | 4 |  |  | 4 | 83 |  | 100 |  |  |  | phosphorylation of STAT1 [9]: prevented phosphorylation of STAT1 |
| N#CC[C@H](C1CCCC1)n1cc(-c2ncnc3[nH]ccc23)cn1 [Ruxolitinib, ruxolitinib] | 100 | 4 | 1200 |  | 4 | 115 | 1600 | 100 | 880 |  |  | IC50 [11]: 282 ± 54 nM; IC50 ([2]; 48 h, read-out: IC50, HLA-ABC+ cells control titration): 3500 nM; CTG viability response in control titrations ([3]; HLA-B HiBit cells, 24 hrs): slight bell-shaped curve; phosphorylation of STAT1 [9]: prevented phosphorylation of STAT1; IC50 ([10]; Homo sapiens, 24 h, read-out: HiBit IC50): 1100 nM; IC50 ([10]; Homo sapiens, 24 h, read-out: IC50, HiBit control titration): 340 ± 36 nM; cell count response in control titrations ([7]; C25cl48 cells, 48 hrs): bell shaped viability curve |
| COc1cccc2c1C(=O)c1c(O)c3c(c(O)c1C2=O)C[C@@](O)(C(=O)CO)C[C@@H]3O[C@H]1C[C@H](N2CCO[C@H](OC)C2)[C@H](O)[C@H](C)O1 [Nemorubicin, nemorubicin] | 107 | 4 | 104 | normalized all genes | 4 | 133 | 92 |  | 70 | > 99% | 100 |  |
| Cc1[nH]c2ccccc2c1CCNCc1ccc(/C=C/C(=O)NO)cc1 [Panobinostat, panobinostat] | 111 | −3 | 40 |  | 4 | 68 | 29 |  | 28 | 70–80% | 86 | CTG Efficacy at highest concentration [3, 19]: (25) %; potency relative to givinostat at inhibiting IFN-β-MHC class I pathway [4]: 45 x; effect on HLA-A mRNA [12]: no effect; decrease of all genes tested except HLA-A ([5]; compared to IFN-β treated cells): ~ 80% |
| CCS(=O)(=O)N1CC(CC#N)(n2cc(-c3ncnc4[nH]ccc34)cn2)C1 [Baricitinib, baricitinib] | 100 | 4 |  |  | 4 | 100 |  | 100 |  |  |  | phosphorylation of STAT1 [9]: prevented phosphorylation of STAT1 |
| CC(C)[C@]12O[C@H]1[C@@H]1O[C@]13[C@]1(O[C@H]1C[C@H]1C4=C(CC[C@@]13C)C(=O)OC4)[C@@H]2O [triptolide] |  |  |  |  |  |  |  |  |  |  |  | hill slope [4]: ultrasensitive |
| CC(C)[C@]12O[C@H]1[C@@H]1O[C@@]13[C@@]1(C)CCC4=C(COC4=O)[C@@H]1C[C@@H]1O[C@@]13C2=O [Triptonide, triptonide] |  | 4 |  | normalized all genes | 4 |  |  | 100 |  | > 99% |  | Immunofluorescence Curve class [2, 20]: −1a; Immunofluorescence Efficacy [2, 20]: 100%; Average Curve class [4, 21]: −1a; Average Efficacy [4, 21]: 104%; hill slope [4]: ultrasensitive; IC50 [4, 21]: 246 nM; HiBit Curve class ([10]; HLA-B HiBit clone AB-7 cells, 4.0 ng/ml IFN-β plus compound titration, 24 hours): −1a; IC50 [10, 22]: 47 nM; RT-qPCR Curve class [8, 23]: −1a; RT-qPCR Efficacy [8, 23]: 113%; IC50 [8, 23]: 500 nM |
| Cc1sc2c(c1C)C(c1ccc(Cl)cc1)=N[C@@H](CC(=O)Nc1ccc(OCCOCCOCCOCCNc3cccc4c3C(=O)N(C3CCC(=O)NC3=O)C4=O)cc1)c1nnc(C)n1-2 (some centres unmarked) [ARV-825] |  | −1b |  | reduced IFIT1 while increasing ISG15 | 4 |  |  | 71 |  | low efficacy |  | Immunofluorescence Efficacy [2, 20]: 82%; CTG Efficacy ([3]; cytotoxicity): 8%; IC50 [3, 16]: 53 nM; Average Curve class [4, 21]: −1b; Average Efficacy [4, 21]: 65%; IC50 [4, 21]: 84 nM; decrease of IFIT1 mRNA [13]: 84%; increase of ISG15 mRNA [6]: 2.8 fold; IC50 [10, 22]: 97 nM; RT-qPCR Curve class [8, 23]: −1b; RT-qPCR Efficacy [8, 23]: 43%; IC50 [8, 23]: 65 nM |
| CCc1cnn2c(NCc3ccc[n+]([O-])c3)cc(N3CCCC[C@H]3CCO)nc12 [Dinaciclib, dinaciclib] | 100 | 4 |  | did not decrease any of the other genes tested; also recorded: increased HLA-C, ISG15, and MX1 | 4 | 117 |  |  |  |  | 100 | increase of MX1 mRNA [1]: ~ 3.3 fold; common adverse events [14]: leukopenia, thrombocytopenia, gastrointestinal symptoms, alopecia, and fatigue; increase of HLA-C mRNA [15]: ~ 3.3 fold; increase of ISG15 mRNA [6]: ~ 3.3 fold |
| COc1ccc(-c2nc(N3CCOCC3)c3sc(CN(C)c4ncc(C(=O)NO)cn4)cc3n2)cn1 [CUDC-907] | 100 | −1b | 19 | reduced 3 genes | −3 | 73 | 23 |  | 5.8 | 70–80% | 86 | decrease of MX1 mRNA [1]: ~ 75%; IC50 ([3]; Homo sapiens, 24 h): 3500 nM; CTG Efficacy ([3]; cytotoxicity): 40%; decrease of IFIT1 mRNA [13]: ~ 75%; decrease of HLA-C mRNA [15]: ~ 75%; Cell count Efficacy at highest concentration [7, 19]: (10) % |
